Values joined by “and” are separate entries in the source; they are usually repeats but may differ in a detail not shown here. Equal values may be shown once.
Key:
[1] = tested on: serum uric acid (sUA) levels; assay: Study A3006GT: phase 2 crossover, sUA in healthy subjects with screening sUA of at least 7.1 mg/dL; tranilast, febuxostat, combination; format: in vivo, human
Procedure: Study A3006GT was a phase 2, randomized, double-blind, 3-period, 3-treatment crossover trial. The primary objective was to compare the effects of three treatments on serum uric acid (sUA) levels in healthy subjects with a screening sUA level of at least 7.1 mg/dL. The three treatments were: 300 mg QD tranilast and 40 mg QD febuxostat (C); 300 mg QD tranilast alone (T); 40 mg QD febuxostat alone (F).
The study was conducted in 23 subjects. […] With two exceptions, every subject provided data for all three treatments. Subject 1001 completed only the first two periods of the study (C and F). […] Therefore, the period 3 data for subject 1024 are excluded from the analyses presented here.
Two endpoints were considered: change from baseline to day 7 in sUA; and percent change from baseline to day 7 in sUA. For each endpoint, an analysis of variance (ANOVA) model for a three-period crossover trial was used. The model included effects for sequence, subject within sequence, treatment, and period. The sequence effect was tested using the subject within sequence mean square as the error term. Two pairwise comparisons between treatments were tested: C−F and C−T. In addition, the two-sided 95% confidence interval for each of these differences was computed.
For each subject for which results were available from all three treatments, the difference between the change for C and the sum of the changes for F and T was computed. Although the true magnitude of the difference between these two values is not known, a conservative null hypothesis is that this difference should be equally likely to be greater than or less than zero. The sign test and the Wilcoxon signed rank test were used to test this null hypothesis.
Using the change for each subject as the dependent variable, an analysis of variance (ANOVA) model for a three-period crossover trial was fit. This model included effects for sequence, subject within sequence, treatment, and period. Using the least squares estimates of the mean changes for each treatment, along with the 3×3 covariance matrix of these three estimates, the mean and SD of the difference between C and F+T was estimated, as follows.

[2] = tested on: monosodium urate (MSU) crystal-induced air pouch inflammation; assay: Air Pouch Model 2: MSU crystal air pouch, rodent model of gout; format: in vivo, male Sprague-Dawley rats; settings: for Average Exudate Volume, Mean / Average Plasma Extravasation, OD620 nm, Mean / Total WBC in Sample, Mean / WBC in exudate, Mean: 4 h after MSU
Procedure: The objective of this study was to evaluate the anti-inflammatory potency of Tranilast. This evaluation was carried out in male Sprague-Dawley rats in a rodent model of gout. The animals were injected subcutaneously with 20 ml of sterile air, followed three days later by a supplemental injection with 20 ml of sterile air. Six days after the initial sterile air injection, the rats were injected intravenously with Evan's Blue and pretreated for thirty minutes with oral administration of 25 mg/kg, 50 mg/kg, 100 mg/kg or 200 mg/kg tranilast. After the pretreatment period, the rats were injected with 150 mg of monosodium urate (MSU) crystals (10 mg/ml) into the air pouch. Four hours later, the air pouch was injected with 5 ml heparinized saline and the entire contents of the air pouch removed, recording the total volume. The air pouch contents were evaluated for plasma extravasation and total white blood cell (WBC) count.
(§1) On day 0 the rats were anesthetized in a biological cabinet, the nape of the neck was cleansed with 70% isopropanol followed by iodine tincture (VEDCO, lot L021976). Twenty ml sterile (0.22 μm, Millipore, Cat. SLGSV255F, lot R8J1494130, exp July 2011) air was injected subcutaneously using a 23 G×2 inch needle fixed to a 20 ml syringe. The rats were returned to routine housing. No adverse reactions were observed.
as §1, with “day 3” for “day 0”, “μm, Fisher Scientific,” for “μm, Millipore,”, “Cat. 09-720-3,” for “Cat. SLGSV255F,”, “lot R5SN25683)” for “lot R8J1494130, exp July 2011)”
On day 6 the rats were weighed (Mettler, Model PE3000, SN: F69474) and injected intravenously injected with 2 ml/kg Evans Blue. The animals were dosed orally with 0.5 ml/kg, 1 ml/kg, 2; ml/kg or 4 ml/kg tranilast, or 4 ml/kg vehicle.
Thirty minutes after test material administration, the rats were anesthetized and five groups (2-6) were injected into the air pouch with 15 ml MSU using a 19 G×2 inch needle fitted to a 20 ml syringe. Group 1 was injected with 15 ml saline. The rats were returned to their cages, no adverse affects were observed.
Four hours after MSU/saline injection, the rats were anesthetized and 5 ml 10 U/ml heparinized saline was injected into the air pouch. The air pouch was gently massaged, the contents immediately removed using a 14 G×1 inch needle fitted to a 6 ml syringe, and the exudate volume recorded. An aliquot of the exudate was transferred to heparin-treated microtainer tubes (Becton Dickinson, Cat. 365958, lot 9140110, expo July 2010) for white blood cell (WBC) counting. The remainder of the exudate was centrifuged (Hermle Labrotechnik, Model Z200A, SN: 44060036), the supernatants removed and evaluated at OD620nm (Spectronic Unicam, Model 4000 1/4, SN: 3SGD003006) for plasma extravasation.

[3] = end of 1-week treatment (day 7), C: 300 mg QD tranilast + 40 mg QD febuxostat, T: 300 mg QD, F: 40 mg QD
[4] = individual subjects, per study period, end of the 1-week treatment period
[5] = 25 mg/kg oral, 30 min before MSU
[6] = 50 mg/kg oral, 30 min before MSU
[7] = 100 mg/kg oral, 30 min before MSU
[8] = 200 mg/kg oral, 30 min before MSU
[9] = highest dose 200 mg/kg oral, 30 min before MSU
[10] = oral, sigmoidal dose-response (variable slope) analysis

With COc1ccc(/C=C/C(=O)Nc2ccccc2C(=O)O)cc1OC [Tranilast, 2-[[3-(3,4-dimethoxyphenyl)-1-oxo-2-propenyl]amino]benzoic acid] the “sUA Change from Baseline, Max” value [1, 3] was -0.90 mg/dL, the “sUA Change from Baseline, Mean” value [1, 3] was -1.60 mg/dL and the “sUA Change from Baseline, Median” value [1, 3] was -1.40 mg/dL. The “sUA Change from Baseline, Min” value [1, 3] was -3.50 mg/dL, the “sUA Percent Change from Baseline, Max” value [1, 3] was −9.47% and the “sUA Percent Change from Baseline, Mean” value [1, 3] was −21.20%. For the same molecule, the “sUA Percent Change from Baseline, Median” value [1, 3] was −18.61%, the “sUA Percent Change from Baseline, Min” value [1, 3] was −47.95% and the “sUA Change from baseline” value [1, 4] was −1.4 mg/dL (2×) and −1.1 mg/dL (3×) and −2.1 mg/dL and −2.2 mg/dL (2×) and −1.7 mg/dL (3×) and −1.9 mg/dL and −0.9 mg/dL (2×) and −1.2 mg/dL (3×) and −1.0 mg/dL (2×) and −3.2 mg/dL and −3.5 mg/dL and −1.6 mg/dL. For the same molecule, the “sUA Percent Change from baseline” value [1, 4] was −17.50% and −14.86% and −30.43% and −27.85% and −16.42% and −26.98% and −22.09% and −13.64% and −9.47% and −26.15% and −16.00% and −14.29% (2×) and −10.87% and −30.14% and −14.46% and −35.56% and −47.95% and −20.51% and −19.72% and −15.38% and −21.79%, the “Average Exudate Volume, Mean” value [2, 5] was 6.5 mL and the “Average Plasma Extravasation, OD620 nm, Mean” value (from here on “Average Plasma Extravasation”) [2, 5] was 1.431. For the same molecule, the “Total WBC in Sample, Mean” value [2, 5] was 20550000, the “WBC in exudate, Mean” value [2, 5] was 3196000 cells/ml and the “Average Exudate Volume, Mean” value [2, 6] was 8.6 mL. The “Average Plasma Extravasation” value [2, 6] was 1.048, the “Total WBC in Sample, Mean” value [2, 6] was 12476000 and the “WBC in exudate, Mean” value [2, 6] was 1557000 cells/ml. For the same molecule, the “Average Exudate Volume, Mean” value [2, 7] was 8.0 mL, the “Average Plasma Extravasation” value [2, 7] was 0.939 and the “Total WBC in Sample, Mean” value [2, 7] was 10629600. The “WBC in exudate, Mean” value [2, 7] was 1566000 cells/ml, the “Average Exudate Volume, Mean” value [2, 8] was 3.2 mL and the “Average Plasma Extravasation” value [2, 8] was 0.819. The “Total WBC in Sample, Mean” value [2, 8] was 10305200, the “WBC in exudate, Mean” value [2, 8] was 3516000 cells/ml and the “inhibition of plasma extravasation” value [2, 9] was 42%. The “inhibition of white blood cell infiltration” value [2, 9] was 80%, the “effect on MSU-induced parameters (plasma extravasation, leukocyte infiltration)” value ([2]; oral 25-200 mg/kg, 30 min before MSU) was “dose-dependent inhibition” and the “IC50 effect on plasma extravasation” value [2, 10] was 45 mg/kg. The “IC50 effect on white blood cell infiltration” value [2, 10] was 16 mg/kg.

— patent publication US20100160351A1, “PHARMACEUTICAL COMPOSITIONS AND METHODS FOR TREATING HYPERURICEMIA AND RELATED DISORDERS” (NUON THERAPEUTICS, INC., priority 2008, published 2010)
